Assay results taken from paper PMC11352273, “The Proapoptotic Action of Pyrrolidinedione–Thiazolidinone Hybrids towards Human Breast Carcinoma Cells Does Not Depend on Their Genotype” (Cancers, 2024).
Read-outs that look alike come from different tables or passages of the source.

What was measured:
MCF-10A cells [1] = assay: MTT assay; format: cell-based, human
Description: (§1) The MCF-7 and MDA-MB-231 cells were cultured in the DMEM medium containing 10% of the FBS, HCC1954, T-47D, and 4T1 cells in the RPMI-1640 medium with the addition of 10% of the FBS, and MCF-10A cells in MEGM Mammary Epithelial Cell Growth Medium BulletKit supplemented with penicillin/streptomycin cocktail and 5% of horse serum. The cells were cultured in a […] atmosphere at 5% CO2 and 37 °C. After trypsinization, cells were counted using a Scepter 3.0 handheld automated cell counter (Millipore, Burlington, MA, USA).
(§2) The MTT test was used to assess the metabolic activity of cells treated with the investigated substances following the Sigma-Aldrich manufacturer’s instructions. Briefly, compounds were added in 100 µL of the cultural medium, and cells were incubated for the next 24 and 48 h. Doxorubicin was used as a reference drug. The DMSO was added to dissolve the crystals of formazan. We used the ThermoScientific Evolution 201 UV–VIS spectrophotometer (ThermoFisher Scientific, Waltham, MA, USA) to measure the absorbance of formazan at 570 nm. The initial value of the relative number of cells in control (under 0.1% of the DMSO) was accepted as 100%. We used GraphPad Prism Version 9 to calculate the half-maximal inhibition concentration (IC50) of the studied compounds (the concentration of the drug that reduced cell viability by 50%).

MCF-10A cells [2] = assay: Clonogenic assay; format: cell-based; conditions: Homo sapiens; for IC50: 72 h exposure, 14 days culture, read-out: IC50 (M ± SD) in clonogenic assay; for inhibition at 50 µM: compound at 50 µM, read-out: inhibition of the formation of colonies
Description: (§3) The clonogenic assay was carried out utilizing the previously published methodology. The MCF-7, MDA-MB-231, HCC1954, and MCF-10A cells (500 cells/2 mL) were seeded in a 12-well plate overnight. Afterward, studied derivatives or doxorubicin (1, 2.5, 5, 10, and 50 µM) were added to cells. The media was changed after 72 h to a compound-free one, and the cells were cultured for the following 14 days. Then, the cells were washed, fixed, and stained with 0.1% crystal violet. After washing, the plates were dried at room temperature. The colonies were recorded by ImageJ software (Version 1.30). The value of colonies in control (non-treated cells) was accepted as 100%. The effect of compounds on the colony-forming ability of cells was expressed as the percentage of colonies compared to the control.

MCF-7 cells [3] = assay: Clonogenic assay; format: cell-based, human; conditions: for IC50: Homo sapiens, MCF7, MCF-7, 72 h exposure, 14 days culture, read-out: IC50 (M ± SD) in clonogenic assay; for formation of colonies: MCF-7, compound at 5 µM
Description: as §3

HCC1954 cells [4] = assay: Clonogenic assay; format: cell-based, human; conditions: Homo sapiens; HCC1954; 72 h exposure, 14 days culture; read-out: IC50 (M ± SD) in clonogenic assay
Description: as §3

MDA-MB-231 cells [5] = assay: Clonogenic assay; format: cell-based, human; conditions: for IC50: Homo sapiens, MDA-MB-231, 72 h exposure, 14 days culture, read-out: IC50 (M ± SD) in clonogenic assay
Description: as §3

MCF-7 cells [6] = assay: MTT assay; format: cell-based; conditions: Homo sapiens, read-out: IC50, µM (M ± SD)
Description: as §1, §2

HCC1954 cells [7] = assay: MTT assay; format: cell-based; conditions: Homo sapiens, read-out: IC50, µM (M ± SD)
Description: as §1, §2

MDA-MB-231 cells [8] = assay: MTT assay; format: cell-based; conditions: Homo sapiens, read-out: IC50, µM (M ± SD)
Description: as §1, §2

T-47D cells = assay: MTT assay; format: cell-based; conditions: Homo sapiens, T47D, read-out: IC50, µM (M ± SD)
Description: as §1, §2

4T1 cells = assay: MTT assay; format: cell-based, murine; conditions: Mus musculus, read-out: IC50, µM (M ± SD)
Description: as §1, §2

[9] = system: MDA-MB-231, 4T1, MCF-7, T-47D, and HCC1954 cells; assay: MTT assay, summary over breast carcinoma cell lines; format: cell-based; conditions: for IC50: Breast carcinoma cell, 24 and 48 h, all five cancer cell lines and all three hybrids together, read-out: IC50, range over breast carcinoma cell lines; for selectivity index (SI = IC50 for MCF-10A/IC50 for human breast tumor cells): range over cell lines and time points
Description: as §1, §2

[10] = system: mitogen-activated lymphocytes collected from the peripheral blood of a healthy donor; parameters: method as in PMID 37579525; conditions: cited from earlier work
[11] = system: normal human keratinocytes (HaCaT); parameters: method as in PMID 37579525; conditions: cited from earlier work
[12] = Homo sapiens, MCF-10A, 24 h, MCF-10A, 24 h, read-out: IC50, µM (M ± SD)
[13] = Homo sapiens, MCF-10A, 48 h, MCF-10A, 48 h, read-out: IC50, µM (M ± SD)
[14] = Homo sapiens, MCF-10A, time point not specified (24 and 48 h), read-out: IC50 towards MCF-10A cells
[15] = time point not specified (24 and 48 h), read-out: IC50 towards MCF-10A cells

| IC50 (MCF-7 cells [3]) | IC50 (HCC1954 cells [4]) | IC50 (MDA-MB-231 cells [5]) | IC50 (MCF-7 cells [6]; MCF7, MCF-7, 24 h) | IC50 (MCF-7 cells [6]; MCF7, MCF-7, 48 h) | IC50 (HCC1954 cells [7]; HCC1954, 24 h) | IC50 (HCC1954 cells [7]; HCC1954, 48 h) | IC50 (MDA-MB-231 cells [8]; MDA-MB-231, 24 h) | IC50 (MDA-MB-231 cells [8]; MDA-MB-231, 48 h) | IC50 (T-47D cells; 24 h) | IC50 (T-47D cells; 48 h) | IC50 (4T1 cells; 4T1, 24 h) | IC50 (4T1 cells; 4T1, 48 h) | SMILES | IC50 (MCF-10A cells [1]; [12]) | IC50 (MCF-10A cells [1]; [13]) | IC50 (MCF-10A cells [1]; [14]) | IC50 (MCF-10A cells [1]; [15]) | IC50 (MCF-10A cells [2]) | inhibition at 50 µM (MCF-10A cells [2]) | formation of colonies (MCF-7 cells [3]) | other results |
| --- | --- | --- | --- | --- | --- | --- | --- | --- | --- | --- | --- | --- | --- | --- | --- | --- | --- | --- | --- | --- | --- |
| 1.57 ± 0.12 µM | 1.54 ± 0.02 µM | 1.19 ± 0.03 µM | 3.26 ± 0.4 µM | 2.18 ± 0.19 µM | 9.91 ± 0.17 µM | 6.4 ± 0.25 µM | 6.09 ± 0.33 µM | 2.01 ± 0.12 µM | 4.08 ± 0.56 µM | 1.97 ± 0.58 µM | 2.25 ± 0.34 µM | 1.94 ± 0.15 µM | O=C1CC(N2C(=O)C(=CC(Cl)=Cc3ccc([N+](=O)[O-])cc3)SC2=S)C(=O)N1c1ccc(Br)cc1 (stereo not drawn) [Les-6328, 1-(4-bromophenyl)-3-[5-[2-chloro-3-(4-nitrophenyl)prop-2-enylidene]-4-oxo-2-thioxothiazolidine-3-yl]pyrrolidine-2,5-dione] | > 100 µM | > 100 µM | > 100 µM | > 64.6 µM | > 50 µM | 25.9% | totally inhibited | formation of colonies (MDA-MB-231 cells [5]; MDA-MB-231, compound at 2.5 µM): did not observe the growth; IC50 [9]: 1.37 to 21.9 µM; selectivity index (SI = IC50 for MCF-10A/IC50 for human breast tumor cells) [9]: 10.09–50.76 |
| 1.33 ± 0.1 µM | 3.05 ± 0.03 µM | 0.67 ± 0.08 µM | 6.74 ± 0.64 µM | 3.54 ± 0.14 µM | 4.53 ± 0.18 µM | 5.01 ± 0.23 µM | 21.9 ± 9.92 µM | 3.72 ± 0.22 µM | 4.48 ± 0.51 µM | 2.66 ± 0.21 µM | 2.2 ± 0.19 µM | 2.22 ± 0.25 µM | O=C1CC(N2C(=O)C(=CC(Cl)=Cc3ccc([N+](=O)[O-])cc3)SC2=S)C(=O)N1c1ccc(Cl)cc1 (stereo not drawn) [Les-6294, 1-(4-chlorophenyl)-3-[5-[2-chloro-3-(4-nitrophenyl)prop-2-enylidene]-4-oxo-2-thioxothiazolidine-3-yl]pyrrolidine-2,5-dione] | > 100 µM | > 100 µM | > 100 µM | > 64.6 µM | > 50 µM | 37.1% | totally inhibited | formation of colonies (MDA-MB-231 cells [5]; MDA-MB-231, compound at 5 µM): did not observe the growth; IC50 [10]: 29 to 67 µM; IC50 [11]: > 73.6 µM; IC50 [9]: 1.37 to 21.9 µM; selectivity index (SI = IC50 for MCF-10A/IC50 for human breast tumor cells) [9]: 4.57–37.59 |
